Experiments:
[1] = compound: CN(C)C(=N)NC(=N)N [Metformin]; assay: relative viability (nuclei count vs DMSO), 5 days (fraction); higher = more cells survive
Procedure, shortened: (§1)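 Five library-drug doses, separated by factors of √10, were pinned into 1536-well plates holding lung cancer cell lines after an overnight stay at 37 °C. Cells were fixed, permeabilised and Hoechst-stained in one step after 5 days without medium change, then imaged at 4×. Viability compares treated-well with vehicle-well nuclei, counted in MetaXpress, as a median across plates. Passing plates had control CV below 25% and at least one doubling.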

[2] = compound: N#CC1(c2ccc(NC(=O)c3cccnc3NCc3ccncc3)cc2)CCCC1 [Apatinib]; assay: as above
Procedure, shortened: as §1

Cell Line | relative viability ([1]; 10 µM) | relative viability ([1]; 31.62 µM) | relative viability ([1]; 100 µM) | relative viability ([1]; 316.23 µM) | relative viability ([1]; 1000 µM) | relative viability ([2]; 0.08 µM) | relative viability ([2]; 0.253 µM) | relative viability ([2]; 0.8 µM) | relative viability ([2]; 2.53 µM) | relative viability ([2]; 8 µM)
RERF-LC-KJ | 0.817 | 0.976 | 0.888 | 0.786 | 0.926 | 1.03 | 0.978 | 0.933 | 0.847 | 0.802
NCI-H647 | 0.978 | 1.05 | 1.05 | 0.813 | 0.939 | 1.05 | 1.07 | 0.993 | 0.837 | 0.852
NCI-H1395 | 1.06 | 1.3 | 0.96 | 0.956 | 0.521 | 0.914 | 1.11 | 0.964 | 0.685 | 0.844
NCI-H522 | 1.24 | 1.09 | 1.05 | 0.942 | 1.11 | 1 | 1.04 | 1.1 | 0.916 | 0.928
NCI-H322M | 0.974 | 0.922 | 0.939 | 0.951 | 0.855 | 0.964 | 0.861 | 0.894 | 0.975 | 1.07
H3255 | 0.839 | 1.09 | 0.967 | 0.909 | 0.841 | 0.979 | 0.935 | 0.964 | 0.859 | 0.916
201T |  | 1.08 | 1.06 | 0.934 | 1.01 | 0.983 | 0.961 | 0.982 | 0.871 | 0.894
SW 1573 | 1.13 | 1.1 | 1.01 | 0.843 | 0.864 | 1.08 | 1.12 | 0.941 | 0.839 | 0.872
NCI-H2170 | 0.787 | 0.882 | 0.907 | 0.957 | 1.01 | 0.981 | 1.01 | 0.909 | 0.89 | 0.886
NCI-H1993 | 1.03 | 0.892 | 1 | 0.872 | 1.07 | 1.01 | 0.923 | 0.889 | 0.833 | 0.869
NCI-H1755 | 0.807 | 0.891 | 0.864 | 0.853 | 0.897 | 1.02 | 1 | 1 | 1.06 | 0.951
NCI-H1437 | 1.09 | 1.16 | 1.01 | 1.04 | 1.08 | 0.949 | 0.995 | 0.996 | 0.83 | 0.799
EPLC-272H | 0.9 | 1.16 | 0.923 | 0.935 | 1.09 | 1.01 | 1.02 | 0.914 | 0.774 | 0.691
LK-2 | 1.22 | 1.28 | 1.22 | 1.07 | 1.32 | 0.978 | 0.976 | 0.973 | 0.856 | 0.634
NCI-H1975 | 1.06 | 1.16 | 1.09 | 1.12 | 1.21 | 0.97 | 0.981 | 0.91 | 0.844 | 0.943
HARA | 1.12 | 1.26 | 1.13 | 1.06 | 1.13 | 1.33 | 0.93 | 1 | 0.742 | 1.04
SK-MES-1 | 0.9 | 0.875 | 0.952 | 0.826 | 0.884 | 1.02 | 1.06 | 0.978 | 0.933 | 0.884

Cell Line | relative viability ([1]; 10 µM) | relative viability ([1]; 31.62 µM) | relative viability ([1]; 100 µM) | relative viability ([1]; 316.23 µM) | relative viability ([1]; 1000 µM) | relative viability ([2]; 0.08 µM) | relative viability ([2]; 0.253 µM) | relative viability ([2]; 0.8 µM) | relative viability ([2]; 2.53 µM) | relative viability ([2]; 8 µM)
NCI-H2405 | 0.756 | 1.04 | 0.91 | 0.971 | 0.931 | 0.954 | 1.04 | 1.07 | 0.909 | 0.955
NCI-H1734 | 1.01 | 1.03 | 1.04 | 1.01 | 1.02 | 1.18 | 0.987 | 0.991 | 0.909 | 0.845
NCI-H1299 | 1.07 | 1.04 | 1.07 | 1.01 | 1.03 | 1.04 | 1 | 1 | 0.931 | 0.917
NCI-H1915 |  | 0.998 | 1.02 | 0.968 | 1.01 | 1.06 | 0.959 | 0.963 | 0.879 | 0.821
NCI-H2228 | 0.913 | 1.08 | 0.803 | 0.907 | 1.22 | 1.13 | 1.08 | 0.993 | 0.867 | 0.846
NCI-H650 | 1.02 | 1.1 | 0.816 | 0.953 | 1.07 | 0.979 | 0.927 | 1 | 0.745 | 0.763
NCI-H2009 | 0.889 | 1.1 | 1.04 | 1.02 | 1.03 | 1.06 | 0.979 | 0.968 | 0.762 | 0.618
NCI-H23 | 0.919 | 1.17 | 0.969 | 0.997 | 1.13 | 1.08 | 0.977 | 0.912 | 0.937 | 0.88
NCI-H2087 | 0.79 | 0.965 | 0.944 | 0.813 | 1.01 | 1.05 | 1.03 | 1.22 | 0.788 | 0.814
NCI-H358 | 0.939 | 1.09 | 1.03 | 0.98 | 1.09 | 0.987 | 1.03 | 0.962 | 0.961 | 0.877
ChaGo-K-1 | 0.951 | 1.11 | 1.05 | 0.896 | 0.987 | 1.01 | 1.09 | 0.932 | 0.938 | 0.989
ABC-1 | 0.847 | 1.2 | 0.965 | 0.948 | 0.448 |  | 1.06 | 0.86 | 0.911 | 0.703
PC-14 | 1.01 | 1.09 | 0.997 | 0.971 | 0.944 | 1.03 | 1.05 | 0.829 | 0.968 | 0.956
NCI-H596 | 1.17 | 1.14 | 1.02 | 1.06 | 1.09 | 0.939 | 1.03 | 0.94 | 0.911 | 0.882
LOU-NH91 | 0.998 | 0.865 | 0.973 | 0.997 | 0.946 | 0.94 | 0.922 | 0.871 | 0.89 | 0.898
LU99A | 0.946 | 0.894 | 0.785 | 0.792 | 0.915 | 0.923 | 1.11 | 0.95 | 0.925 | 0.83
NCI-H1355 | 0.838 | 0.953 | 0.963 | 0.992 | 1.05 | 0.993 | 0.962 | 0.956 | 0.9 | 0.885

— the supplement of paper PMC10307832
